A word on the IC50: it is the midpoint of a concentration-inhibition curve.

This passage reports IC50 and EC50 results from patent US20020028807A1, “Non-nucleoside reverse transcriptase inhibitors” (priority 2000, published 2002).

SMILES strings stand for the structures.

One test deals with T1, HIV-1 RT Y188L (Human immunodeficiency virus type 1 group M subtype B, UniProt P03366, Y787L).
T1 construct: an HIV RT clone pKRT2 containing only the RT p66 gene regulated by the lac operon/trc promoter; made in house; host or cells: E. coli JM109, vector pKK233-2
In words: Reverse transcriptase (RT) assay, Y188L mutant. It counts as biochemical. A digest of the protocol: (§1)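 Recombinant HIV-1 RT p66/p51 heterodimer mutants were made by site-directed mutagenesis, expressed in E. coli JM109 and purified by hydroxyapatite chromatography. Cell-free activity used a poly r(C) template primed with biotinylated oligo d(G), with incorporation of 3H-dGTP into DNA as read-out.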

Test [1] concerns HIV coding for mutant reverse transcriptase V106A. In words: ELISA (p24) assay of HIV replication in C8166 cell culture, V106A virus. It counts as cell-based, HIV-1. The settings on record: Human immunodeficiency virus 1, C8166, 72 h, read-out: EC50 V106A. As for the experimental part:
(§2) Compounds of the invention were tested for their ability to inhibit HIV replication in cell culture in a 96-well plate assay. Complete RPMI 1640, consisting of RPMI 1640+10% fetal bovine serum, 10 μg/ml gentamycin and 10 μM β-mercaptoethanol was used for dilution of the compound as well as cell growth medium. The T lymphocyte cell line C8166 was infected at a multiplicity of infection of 0.001 with viruses coding for wild-type and mutant reverse transcriptase. Cells were then incubated for three days in the presence of serial dilutions of the compounds of the invention. The supernatant was pooled from eight replica wells and the concentration of extracellular p24 was determined using a commercially available HIV-1 p24 antigen assay kit (Beckman-Coulter®). The level of inhibition (% inhibition) was calculated with the following equation: [formula]
(In general: In an ELISA, binding on a coated surface is turned into a signal by an enzyme label.)

The target of the next test is T2, HIV-1 RT Y181C (Human immunodeficiency virus type 1 group M subtype B, UniProt P03366, Y780C).
T2 construct: an HIV RT clone pKRT2 containing only the RT p66 gene regulated by the lac operon/trc promoter; made in house; host or cells: E. coli JM109, vector pKK233-2
In words: Reverse transcriptase (RT) assay, Y181C mutant. In kind it is biochemical. The essentials:
as §1

A further test addresses T3, HIV-1 RT K103N/P225H (Human immunodeficiency virus type 1 group M subtype B, UniProt P03366, K702N/P824H).
T3 construct: an HIV RT clone pKRT2 containing only the RT p66 gene regulated by the lac operon/trc promoter; made in house; host or cells: E. coli JM109, vector pKK233-2
In words: Reverse transcriptase (RT) assay, K103N/P225H mutant. In kind it is biochemical. A digest of the protocol: as §1

The target in the next test is T4, HIV-1 RT K103N/Y181C (Human immunodeficiency virus type 1 group M subtype B, UniProt P03366, K702N/Y780C).
T4 construct: an HIV RT clone pKRT2 containing only the RT p66 gene regulated by the lac operon/trc promoter; made in house; host or cells: E. coli JM109, vector pKK233-2
In words: Reverse transcriptase (RT) assay, K103N/Y181C mutant. It counts as biochemical. The essentials:
as §1

For a further test, the target named is T5, HIV-1 RT P23L (Human immunodeficiency virus type 1 group M subtype B, UniProt P03366, P835L).
T5 construct: an HIV RT clone pKRT2 containing only the RT p66 gene regulated by the lac operon/trc promoter; made in house; host or cells: E. coli JM109, vector pKK233-2
In words: Reverse transcriptase (RT) assay, P23L mutant. In kind it is biochemical. The source says: (§3) Among the enzymes for which Human Immunodeficiency Virus (HIV-1) encodes is a reverse transcriptase (1), so-named because it transcribes a DNA copy from an RNA template. This activity can be quantitatively measured in a cell-free enzyme assay and is based upon the observation that reverse transcriptase is able to use a synthetic template poly r(C) primed with a biotinylated oligo d(G) to transcribe a radio-labelled DNA strand utilising 3H-dGTP as a substrate. The assay described below utilises the wild-type enzyme (which is the predominant form of the enzyme observed in patients infected with HIV-1) and can also be used with mutant RT enzymes (for example, Y181C, prepared by site-directed mutagenesis in which the tyrosine residue at codon 181 has been replaced by a cysteine residue) in analogous assay conditions. This assay allows compounds to be evaluated for their effectiveness at inhibiting the mutant enzymes.
(§4) Some HIV-1 IIIB clone BH10 RT mutants were provided by Dr. C.-K. Shih (Boehringer Ingelheim Pharmaceutials Inc., U.S.A.) in the vector pKK233-2 (Pharmacia). Briefly an HIV RT clone pKRT2 containing only the RT p66 gene regulated by the lac operon/trc promoter was obtained from Dr. W. Summers (Yale University) (2). A variety of specific amino acid substitutions were introduced into the wild-type RT gene by site-directed mutagenesis. RT clones were subcloned into the pKK233-2 bacterial expression vector. Clones provided included wild-type, Val106Ala, Tyr181Cys, Tyr188Cys, Tyr188Leu, Gly190Ala and Pro236Leu. Others were made in-house by site-directed mutagenesis of the pKK233-2 RT clones including Lys103Asn, Lys103Asn/Tyr181Cys, Lys103Asn/Leu100Ile, Lys103Asn/Pro225His, and Lys103Asn/Val108Ile.
Purification of recombinant reverse transcriptase was performed using a combination of methods previously described (3). A single colony from a fresh plate of transformed JM109 cells was used to initiate growth of a pre-culture grown o/n at 37° C. Two liters of growth medium were inoculated with this pre-culture. At OD600˜1.5 (5-6 h at 37° C.), RT gene expression was induced with IPTG (1 mM final), and the fermentation was continued for a few more hours at 37° C. After centrifugation, supernatants were discarded while cell pellets were pooled and stored at −80° C. until purification. Cells were thawed at 4° C. overnight and suspended in lysis buffer (MES 50 mM pH 6, EDTA 1 mM, 10% v/v glyerol, 0.02% w/v OBG, 0.02% w/v sodium azide). Lysozyme was added and the mixture was incubated on ice for 40 minutes. After homogenization using a bounce in presence of lysozyme and sonication, the cells were centrifuged for 30 minutes. Supernatant (S1) was saved and stored at 4° C. […]

Test [2] relates to HIV coding for mutant reverse transcriptase Y188L. In words: ELISA (p24) assay of HIV replication in C8166 cell culture, Y188L virus. The settings on record: Human immunodeficiency virus 1, C8166, 72 h, read-out: EC50 Y188L. It counts as cell-based, HIV-1. As to the method:
as §2

For test [3], the system named is HIV coding for mutant reverse transcriptase K103N/P225H. In words: ELISA (p24) assay of HIV replication in C8166 cell culture, K103N/P225H virus. In kind it is cell-based, HIV-1. The settings on record: Human immunodeficiency virus 1, C8166, 72 h, read-out: EC50 K103N/P225H. As for the experimental part:
as §2

Another test concerns the target T6, HIV-1 RT G190A (Human immunodeficiency virus type 1 group M subtype B, UniProt P03366, G789A).
T6 construct: an HIV RT clone pKRT2 containing only the RT p66 gene regulated by the lac operon/trc promoter; made in house; host or cells: E. coli JM109, vector pKK233-2
In words: Reverse transcriptase (RT) assay, G190A mutant. It counts as biochemical.
Description: as §3, §4
Purification of recombinant reverse transcriptase was performed using a combination of methods previously described (3). A single colony from a fresh plate of transformed JM109 cells was used to initiate growth of a pre-culture grown o/n at 37° C. Two liters of growth medium were inoculated with this pre-culture. At OD600˜1.5 (5-6 h at 37° C.), RT gene expression was induced with IPTG (1 mM final), and the fermentation was continued for a few more hours at 37° C. After centrifugation, supernatants were discarded while cell pellets were pooled and stored at −80° C. until purification. Cells were thawed at 4° C. overnight and suspended in lysis buffer (MES 50 mM pH 6, EDTA 1 mM, 10% v/v glyerol, 0.02% w/v OBG, 0.02% w/v sodium azide). Lysozyme was added and the mixture was incubated on ice for 40 minutes. After homogenization using a bounce in presence of lysozyme and sonication, the cells were centrifuged for 30 minutes. Supernatant (S1) was saved and stored at 4° C. The centrifuged pellet was resuspended in extraction buffer (MES 50 mM pH 6, KPO4 50 mM pH 6, KCl 100 mM, 10% v/v glycerol, 0.02% w/v OBG, 0.02% w/v sodium axide) and stirred for 30 minutes at 4° C. This second mixture was centrifuged again and the supernatant (S2) was saved. The above procedure was repeated 2 more times saving supernatants S3 and S4 and one last extraction was performed overnight (S5). Polymin P (0.005% final) was added to the combined supernatants to remove nucleic acids. This solution was stirred for 75 minutes at 4° C. and centrifuged for 1 h. The supernatant (SS1) was precipitated on ice with 20% w/v ammonium sulfate and stirred for 1 h at 4° C. The mixture was then centrifuged and the resulting supernatant (SS2) was precipitated with additional 40% w/v ammonium sulfate (60% total), stirred for 1 h and centrifuged again. The final pellet (P1) was stored overnight at 4° C. before undergoing purification the following day. All steps of the purification were performed at 4° C. unless otherwise stated.
Pellet (P1) was resuspended into MES 50 mM pH 6, KPO4 10 mM pH 6, KCl 100 mM, 10% v/v glycerol, 0.02% w/v OBG, 0.02% w/v sodium azide. The suspension was dialysis against the same buffer overnight using 12-14 kD MWCO dialysis tubing. […]

On to `CCN1c2ncc(CCOc3cc[n+]([O-])c4ccccc34)cc2C(=O)N(C)c2cccnc21` [compound 21, 5,11-Dihydro-11-ethyl-5-methyl-8-{2-{(1-oxido-4-quinolinyl)oxy}ethyl}-6H-dipyrido[3,2-b:2′,3′-e][1,4]diazepin-6-one], for which the IC50 at HIV-1 RT Y188L was determined as 1360 nM; at HIV-1 RT Y181C it was 51 nM; at HIV-1 RT K103N/P225H it was 40 nM; at HIV-1 RT K103N/Y181C it was 95 nM; at HIV-1 RT P23L, 129 nM; at HIV-1 RT G190A, 26 nM. Besides, the EC50 stood at 65 nM in test [1], 67 nM in test [2] and 2.9 nM in test [3].

Take `CCN1c2ncc(CCOc3cc[n+]([O-])c4ccccc34)cc2C(=O)N(C)c2ccc(F)nc21` [compound 11, 5,11-Dihydro-11-ethyl-2-fluoro-5-methyl-8-{2-{(1-oxido-4-quinolinyl)oxy}-ethyl}-6H-dipyrido[3,2-b:2′,3′-e][1,4]diazepin-6-one]: the IC50 at HIV-1 RT Y188L came to 661 nM; at HIV-1 RT Y181C, 27 nM; at HIV-1 RT K103N/P225H, 15 nM; on HIV-1 RT K103N/Y181C it was 55 nM; at HIV-1 RT P23L, 56 nM; at HIV-1 RT G190A, 19 nM. Besides, the figures for the EC50 in test [1], in test [2] and in test [3] were 28 nM, 52 nM and 2 nM, respectively.

On to `CCN1c2ncc(CCOc3cc[n+]([O-])c4ccccc34)cc2C(=O)N(C)c2ccc(Cl)nc21` [compound 17, 2-Chloro-5,11-dihydro-11-ethyl-5-methyl-8-{2-{(1-oxido-4-quinolinyl)oxy}-ethyl}-6H-dipyrido[3,2-b:2′,3′-e][1,4]diazepin-6-one], for which the IC50 at HIV-1 RT Y188L is 198 nM; at HIV-1 RT Y181C, 29 nM; on HIV-1 RT K103N/P225H, 23 nM; at HIV-1 RT K103N/Y181C, 48 nM; on HIV-1 RT P23L it was 60 nM; at HIV-1 RT G190A, 25 nM. Further, the EC50 in test [1] was found to be 24 nM; in test [2] it was 58 nM; in test [3], 1.2 nM.
